Assays:
Experiment in all cases: relative viability (nuclei count vs DMSO), 5 days (fraction); higher = more cells survive
IPA-3 + Alpelisib = compound: C1=CC=C2C(=C1)C=CC(=C2SSC3=C(C=CC4=CC=CC=C43)O)O [IPA-3] + Cc1nc(NC(=O)N2CCC[C@H]2C(N)=O)sc1-c1ccnc(C(C)(C)C(F)(F)F)c1 [Alpelisib] (partner 2 µM)
Procedure, shortened: (§1)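 Lung cancer cell lines in 1536-well plates got either a single drug or a fixed anchor-drug dose together with five library-drug doses (not always all listed) in √10 steps, by pin tool, on the day after seeding. Nuclei were counted after 5 days, and relative viability is the treated-to-vehicle ratio of nuclei counts. Values are medians of duplicate plates.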

Doramapimod + Decitabine = compound: Cc1ccc(-n2nc(C(C)(C)C)cc2NC(=O)Nc2ccc(OCCN3CCOCC3)c3ccccc23)cc1 [Doramapimod] + Nc1ncn([C@H]2C[C@H](O)[C@@H](CO)O2)c(=O)n1 [Decitabine] (partner 2 µM)
Procedure, shortened: as §1

RAF265 + Pictilisib = compound: Cn1c(Nc2ccc(C(F)(F)F)cc2)nc2cc(Oc3ccnc(-c4ncc(C(F)(F)F)[nH]4)c3)ccc21 [RAF265] + CS(=O)(=O)N1CCN(Cc2cc3nc(-c4cccc5[nH]ncc45)nc(N4CCOCC4)c3s2)CC1 [Pictilisib] (partner 1 µM)
Procedure, shortened: as §1

RAF265 + Phenformin = compound: Cn1c(Nc2ccc(C(F)(F)F)cc2)nc2cc(Oc3ccnc(-c4ncc(C(F)(F)F)[nH]4)c3)ccc21 [RAF265] + N=C(N)NC(=N)NCCc1ccccc1 [Phenformin] (partner 250 µM)
Procedure, shortened: as §1

Cell Line	relative viability (IPA-3 + Alpelisib; first compound 0.2 µM)	relative viability (IPA-3 + Alpelisib; first compound 0.6325 µM)	relative viability (IPA-3 + Alpelisib; first compound 2 µM)	relative viability (IPA-3 + Alpelisib; first compound 6.325 µM)	relative viability (IPA-3 + Alpelisib; first compound 20 µM)	relative viability (Doramapimod + Decitabine; first compound 0.02 µM)	relative viability (Doramapimod + Decitabine; first compound 0.06325 µM)	relative viability (Doramapimod + Decitabine; first compound 0.2 µM)	relative viability (Doramapimod + Decitabine; first compound 0.6325 µM)	relative viability (Doramapimod + Decitabine; first compound 2 µM)	relative viability (RAF265 + Pictilisib; first compound 0.01 µM)	relative viability (RAF265 + Pictilisib; first compound 0.03162 µM)	relative viability (RAF265 + Pictilisib; first compound 0.1 µM)	relative viability (RAF265 + Pictilisib; first compound 0.3162 µM)	relative viability (RAF265 + Pictilisib; first compound 1 µM)	relative viability (RAF265 + Phenformin; first compound 0.01 µM)	relative viability (RAF265 + Phenformin; first compound 0.03162 µM)	relative viability (RAF265 + Phenformin; first compound 0.1 µM)	relative viability (RAF265 + Phenformin; first compound 0.3162 µM)	relative viability (RAF265 + Phenformin; first compound 1 µM)
201T	1.02	1.01	0.997	0.936	1.04	0.857	0.863	0.886	0.921	0.925	0.717	0.7	0.685	0.564	0.552	0.392	0.422	0.453	0.434	0.38
NCI-H2009	1.22	1.18	1.24	1.16	1.14	0.35	0.408	0.45	0.384	0.329	0.884	0.539	0.444	0.438	0.288	0.479	0.416	0.407	0.468	0.38
NCI-H1395	1.06	1.29	1.04	1.26	1.01	0.745	0.722	0.71	0.682	0.64	0.632	0.574	0.568	0.449	0.507	0.438	0.444	0.423	0.409	0.387
LU99A	0.551	0.451	0.512	0.531	0.528	0.905	0.948	0.754	0.97	0.759	0.324	0.269	0.233	0.21	0.187	0.817	0.821	0.679	0.571	0.375
NCI-H1437	1.32	0.938	1.11	0.974	1.27	0.541	0.554	0.647	0.624	0.598	0.613	0.428	0.455	0.475	0.274	0.352	0.388	0.287	0.329	0.242
EKVX	0.923	0.859	0.941	0.941	1.27	0.404	0.313	0.289	0.31	0.239	0.425	0.414	0.429	0.242	0.334	0.266	0.249	0.248	0.186	0.19
ABC-1	1.23	1.11	–	0.881	1.07	1	1.19	0.983	0.959	1.01	0.808	0.58	0.608	0.525	0.458	0.21	0.223	0.228	0.187	0.21
NCI-H520	1.08	0.949	0.784	0.847	0.753	0.408	0.46	0.536	0.552	0.424	0.273	0.246	0.234	0.228	0.15	0.553	0.544	0.579	0.555	0.397
LCLC-97TM1	0.281	0.299	0.241	0.232	0.246	0.197	0.208	0.242	0.236	0.235	0.177	0.172	0.112	0.145	0.107	0.42	0.384	0.21	0.252	0.148
NCI-H2170	0.871	0.781	0.894	0.727	0.806	0.472	0.459	0.483	0.518	0.469	0.34	0.283	0.287	0.214	0.239	0.408	0.38	0.453	0.319	0.366
NCI-H1793	0.786	0.677	0.757	0.739	0.785	0.523	0.449	0.526	0.483	0.392	0.296	0.267	0.447	0.216	0.179	0.352	0.351	0.298	–	0.262
NCI-H3122	0.797	0.798	0.804	0.856	0.776	0.427	0.445	0.394	0.491	0.415	0.586	0.831	0.575	0.452	0.301	0.386	0.385	0.386	–	0.348
PC-14	1.15	0.885	1	0.88	1.1	0.261	0.22	0.215	0.277	0.197	0.737	–	0.733	–	0.312	0.578	0.599	0.864	–	0.539
EPLC-272H	0.962	0.947	0.902	0.968	1.23	0.377	0.389	0.361	–	0.394	0.35	0.349	0.311	0.237	0.191	0.267	0.323	0.261	0.249	0.206
A-427	1.11	0.993	1.11	1.08	1.14	0.588	0.557	0.536	–	0.541	0.738	0.531	0.797	0.395	0.15	0.361	0.266	0.307	0.204	0.124

Source: the supplement of paper PMC10307832
